In patent US20250194597A1, “METHOD FOR INCREASING FLAVONOID CONTENT IN PLANT THROUGH TREATMENT WITH LOW-MOLECULAR-WEIGHT SULFUR COMPOUND” (REPUBLIC OF KOREA (RURAL DEVELOPMENT ADMINISTRATION), priority 2022, published 2025):

How the values were obtained:
Type in all cases: in vivo
[1] = system: Chinese cabbage cultivar Whimori; experiment: Anthocyanin coloration observed with the naked eye, Chinese cabbage cultivar Whimori seedlings; conditions: 50 μM or 200 μM, cultured 10 days
Experimental: (§1) 3-(3-Thienyl) acrylic acid (hereinafter referred to as S17) and 3-(2-Thienyl) acrylic acid (hereinafter referred to as 3-(2-S)) dissolved in DMSO at a concentration of 50 μM or 200 μM, respectively, were prepared, and seeds of commercial Chinese cabbage cultivars 5923 and Hwimori were sterilized and then germinated on ½ MS solid medium to prepare 4-day seedlings showing consistent growth.

[2] = system: Chinese cabbage cultivar Whimori; experiment: Flavonoid content of leaves by HPLC after aglyconization, cultivar Whimori
Experimental: as §1
(§2) The leaves of the cultivars 5923 and Whimori prepared in Example 1-1 were collected and crushed, and then extracted with 50% methanol containing 2N HCl at 95° C. for 2 hours, and flavonoid substances present in the form of glycosides in the plants were aglyconized and analyzed by HPLC. After the substances were separated through HPLC using a C18 column, peaks were detected at 350 nm and 520 nm, and flavonoids and anthocyanin non-glycosides in the extract were identified by comparing the retention time and UV spectrum of flavonol non-glycoside standards such as kaempferol, quercetin, myricetin and isorhamnetin, and anthocyanin non-glycoside standards such as pelargonidin, cyanidin and delphinidin, respectively, and the content of the identified flavonoid and anthocyanin substances was estimated based on the concentration of the standards and the area of the peak. As a control group, the cultivar 5923 or Whimori that was not treated with sulfur compounds was used.

[3] = system: Chinese cabbage cultivar 5923; experiment: Anthocyanin coloration observed with the naked eye, Chinese cabbage cultivar 5923 seedlings; conditions: cultured 10 days
Experimental: as §1

[4] = system: rice cultivar purple rice; experiment: Anthocyanin coloration of rice cultivar purple rice; conditions: for anthocyanin coloration in the hypocotyls: cultured 7 days
Experimental: To confirm whether anthocyanin coloring effects occur when not only dicotyledonous plants but also gramineous plants, which are monocotyledonous plants, are treated with S17 or 3-(2-S), seeds of the rice cultivar purple rice were sown on ½ MS medium containing each of S17 (40 μM) or 3-(2-S) (80 μM) and cultured for 7 days to observe anthocyanin coloration.

[5] = system: Chinese cabbage cultivar 5923; experiment: Flavonoid content of leaves by HPLC after aglyconization, cultivar 5923; conditions: for cyanidin accumulation: 200 μM alone (no sucrose); for kaempferol content: treated alone (no sucrose), 50 and 200 μM, vs control
Experimental: as §1, §2

[6] = system: Arabidopsis thaliana; experiment: Anthocyanin coloration of Arabidopsis thaliana seedlings; conditions: cultured 5 days; for anthocyanin coloration: 50 μM or 200 μM + 4% sucrose
Experimental: To confirm whether anthocyanin coloring effect occurs when Arabidopsis thaliana, which is a cruciferous plant such as Chinese cabbage, is treated with S17 or 3-(2-S), Arabidopsis thaliana was treated with S17 or 3-(2-S) alone, and each was treated with 4% sucrose. Specifically, Arabidopsis thaliana seeds were germinated on ½ MS solid medium supplemented with 1% sucrose, and then day 6 seedlings were placed on ½ MS medium supplemented with each of S17 (50 μM or 200 μM)+4% sucrose, or 3-(2-S) (50 μM or 200 μM)+4% sucrose and cultured for 5 days to observe anthocyanin coloration.

Compound: O=C(O)/C=C/c1cccs1 [3-(2-S), 3-(2-Thienyl) acrylic acid]
- anthocyanin coloration (naked eye) [1]: red coloration in Chinese cabbage in a concentration-dependent manner
- production of cyanidin ([2]; 200 μM + 4% sucrose): produced
- production of isorhamnetin ([2]; 200 μM + 4% sucrose): produced
- production of quercetin ([2]; 200 μM + 4% sucrose): produced
- kaempferol content ([2]; + 4% sucrose, concentration dependence): increased in a concentration-dependent manner
- kaempferol content compared to the control group ([2]; treated alone (no sucrose)): remarkably increased
- anthocyanin coloration (naked eye) ([3]; 200 μM + 4% sucrose): Coloration was confirmed
- anthocyanin coloration in the hypocotyls ([4]; 80 μM): anthocyanin coloration was strong
- cyanidin accumulation [5]: cyanidin was accumulated
- kaempferol content [5]: increased in a concentration-dependent manner
- anthocyanin coloration [6]: anthocyanin coloration occurred

Compound: O=C(O)/C=C/c1ccsc1 [S17, 3-(3-Thienyl) acrylic acid]
- anthocyanin coloration (naked eye) [1]: red coloration in Chinese cabbage in a concentration-dependent manner
- kaempferol content compared to the control group ([2]; 50 μM and 200 μM + 4% sucrose): remarkably increased
- production of cyanidin ([2]; 50 μM and 200 μM + 4% sucrose): produced
- production of isorhamnetin ([2]; 50 μM and 200 μM + 4% sucrose): produced
- production of quercetin ([2]; 50 μM and 200 μM + 4% sucrose): produced
- kaempferol content compared to the control group ([2]; treated alone (no sucrose)): remarkably increased
- anthocyanin coloration (naked eye) ([3]; 50 μM + 4% sucrose): coloration appeared on the back of the cotyledons and true leaves
- anthocyanin coloration (naked eye) ([3]; 200 μM + 4% sucrose): slightly increased coloration appeared
- anthocyanin coloration (naked eye) ([3]; 200 μM alone, no sucrose): coloration appeared on the back of the leaves
- anthocyanin coloration in the hypocotyls ([4]; 40 μM): anthocyanin coloration was strong
- coloration-inducing effect (anthocyanin production effect) relative to 3-(2-S) ([4]; S17 40 μM vs 3-(2-S) 80 μM): comparatively superior
- kaempferol content increase compared to the control group ([5]; 50 μM + 4% sucrose): up to 6.3 times
- production of isorhamnetin ([5]; 50 μM + 4% sucrose): confirmed
- production of quercetin ([5]; 50 μM + 4% sucrose): confirmed
- cyanidin content compared to the control group ([5]; 200 μM + 4% sucrose): remarkably increased
- cyanidin accumulation [5]: cyanidin was accumulated
- anthocyanin production ability ([5]; 200 μM vs 50 μM treated group, + 4% sucrose): remarkably enhanced
- kaempferol content [5]: increased in a concentration-dependent manner
- anthocyanin coloration [6]: anthocyanin coloration occurred
- anthocyanin coloring compared to the 3-(2-S) treated group ([6]; + 4% sucrose): stronger coloring
